Results on 15 molecules are retold here after patent US20250214991A1 (Oncopia Therapeutics, Inc. d/b/a/ SK Life Science Labs, priority 2022, published 2025).

One assay deals with IKZF2 (Homo sapiens (Human), UniProt Q96SW2+Q9UKS7). Kind of assay: In vitro IKZF2 HiBit Assay (HEK293T Flp-in-HiBiT cells). The class given is cell-based. The following applies: HEK293T Flp-in-HiBiT cells, 6 hrs incubation; for DC50: read-out: IKZF2 HiBit DC50; for Dmax: HEK-293T, read-out: IKZF2 HiBit Dmax (%). How it is done: In Vitro IKZF2 HiBit Assay
Sequence of IKZF2 (Q9UKS7 whole entry): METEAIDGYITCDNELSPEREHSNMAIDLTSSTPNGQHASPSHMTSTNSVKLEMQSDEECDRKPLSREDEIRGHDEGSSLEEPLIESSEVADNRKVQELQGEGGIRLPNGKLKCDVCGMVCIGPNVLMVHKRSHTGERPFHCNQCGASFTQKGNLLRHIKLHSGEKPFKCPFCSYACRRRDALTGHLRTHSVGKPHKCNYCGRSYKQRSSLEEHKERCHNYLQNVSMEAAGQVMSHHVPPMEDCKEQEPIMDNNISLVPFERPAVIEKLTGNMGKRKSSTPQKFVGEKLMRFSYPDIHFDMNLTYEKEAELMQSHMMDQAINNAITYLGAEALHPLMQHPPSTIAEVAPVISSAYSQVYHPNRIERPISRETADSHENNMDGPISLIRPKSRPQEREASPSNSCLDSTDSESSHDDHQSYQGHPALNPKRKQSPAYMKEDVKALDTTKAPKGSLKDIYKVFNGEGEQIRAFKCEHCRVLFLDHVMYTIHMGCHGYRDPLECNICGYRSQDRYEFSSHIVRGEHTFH
Sequence of IKZF2 (Q96SW2 whole entry): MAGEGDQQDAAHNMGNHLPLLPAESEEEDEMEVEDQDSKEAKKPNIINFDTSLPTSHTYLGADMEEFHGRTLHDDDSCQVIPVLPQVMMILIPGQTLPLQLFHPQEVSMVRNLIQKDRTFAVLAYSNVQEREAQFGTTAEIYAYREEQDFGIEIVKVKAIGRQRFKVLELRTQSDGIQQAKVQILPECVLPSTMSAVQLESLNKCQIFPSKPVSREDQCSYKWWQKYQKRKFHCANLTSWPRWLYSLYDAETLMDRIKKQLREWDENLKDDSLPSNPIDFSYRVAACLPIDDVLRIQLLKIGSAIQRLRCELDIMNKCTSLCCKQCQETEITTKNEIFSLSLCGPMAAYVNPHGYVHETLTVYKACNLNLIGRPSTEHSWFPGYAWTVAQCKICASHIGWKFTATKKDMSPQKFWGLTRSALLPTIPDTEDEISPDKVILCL
Sequence of IKZF2 (Q16531 2-1140 partner): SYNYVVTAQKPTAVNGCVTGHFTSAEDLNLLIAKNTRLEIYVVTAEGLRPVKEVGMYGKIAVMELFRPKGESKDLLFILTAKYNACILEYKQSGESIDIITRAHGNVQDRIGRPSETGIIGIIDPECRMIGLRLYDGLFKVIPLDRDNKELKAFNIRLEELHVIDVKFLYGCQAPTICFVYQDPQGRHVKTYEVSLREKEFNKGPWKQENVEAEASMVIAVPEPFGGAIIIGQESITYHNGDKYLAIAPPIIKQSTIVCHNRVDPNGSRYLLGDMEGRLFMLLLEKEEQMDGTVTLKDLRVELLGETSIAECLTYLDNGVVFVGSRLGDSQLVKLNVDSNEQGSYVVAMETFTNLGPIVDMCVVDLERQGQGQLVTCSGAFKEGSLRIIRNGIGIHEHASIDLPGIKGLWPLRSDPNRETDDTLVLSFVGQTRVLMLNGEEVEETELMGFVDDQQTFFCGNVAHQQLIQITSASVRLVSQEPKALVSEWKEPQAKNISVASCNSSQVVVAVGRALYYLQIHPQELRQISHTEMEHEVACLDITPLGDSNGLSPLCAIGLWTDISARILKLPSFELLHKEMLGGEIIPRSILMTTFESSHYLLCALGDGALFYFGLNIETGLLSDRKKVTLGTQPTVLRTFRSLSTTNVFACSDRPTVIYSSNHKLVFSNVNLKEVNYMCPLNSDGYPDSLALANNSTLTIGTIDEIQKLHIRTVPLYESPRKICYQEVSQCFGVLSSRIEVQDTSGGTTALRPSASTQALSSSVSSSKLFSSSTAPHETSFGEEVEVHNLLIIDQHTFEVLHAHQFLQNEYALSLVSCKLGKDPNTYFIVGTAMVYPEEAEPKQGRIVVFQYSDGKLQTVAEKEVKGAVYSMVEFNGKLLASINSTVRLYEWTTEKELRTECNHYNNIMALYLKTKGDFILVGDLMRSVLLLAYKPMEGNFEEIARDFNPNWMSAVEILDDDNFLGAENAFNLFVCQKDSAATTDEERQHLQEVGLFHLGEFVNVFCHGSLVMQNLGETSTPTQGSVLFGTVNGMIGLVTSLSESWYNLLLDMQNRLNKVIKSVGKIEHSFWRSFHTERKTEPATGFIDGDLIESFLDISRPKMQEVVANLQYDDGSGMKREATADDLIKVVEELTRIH
The HiBiT protein tagging system was applied to modified HEK293T Flp-in-HiBiT cells (polyclone) via a CRISPR/Cas9-mediated insertion of the HiBiT peptide tag (Promega™) to the N-terminus of the IKZF2 gene locus (Neon™ transfection system). Test and reference compounds are diluted from 1 mM at 3 folds for 11 doses. 25 nL of diluted compound is transfered to assay plates (Corning3570) using ECHO550, the final DMSO concentration @ 0.1%. The cells are seeded in 3000/25 μL/well to compound plates. It is then incubated for 6 hrs in TC incubator. The amount of Nano-Glo® HiBiT lytic reagent needed to perform the desired experiments is calculated. The Nano-Glo® HiBiT lytic reagent is brought to room temperature. The LgBiT protein is diluted to 1:100 and the Nano-Glo® HiBiT lytic substrate is diluted to 1:50 into an appropriate volume of room temperature Nano-Glo® HiBiT lytic buffer. 15 μL of the detection reagent (or without LgBiT) is dispensed to corresponding well according to the layout. The plate is then shaked for 10 mins at room temperature. After briefly centrifuge, the plate is read on Envision. At the indicated timepoints, the Nano-Glo® HiBiT lytic detection system (Promega™) was utilized for detecting bioluminescence of the HiBiT tag in treated cells: abundance of the tag is proportionate to the level of luminescence. Following normalization to DMSO, dose-response curves were plotted (GraphPad Prism) to determine the concentration points at which 50% of HiBiT-Helios degradation was achieved by each compound. The extent of degradation (range of luminescence) from the highest to lowest concentration points was calculated to determine the Dmax.
(§1) DC50, A: <1 nM; B: 1-10 nM; C: 10-100 nM; D: 100-1000 nM; E: 1000-10000 nM; F: >10,000 nM. Dmax, A: >80%; B: 60-80%; C: 40-60%; D: 20-40%; E: <20%.

The next assay deals with IKZF1 (Homo sapiens (Human), UniProt Q13422+Q96SW2). As to the kind of experiment: In vitro IKZF1 HiBit Assay (HEK293T Flp-in-HiBiT-IKZF1 stable cell line). The class given is cell-based. The note with it: HEK293T Flp-in-HiBiT-IKZF1 stable cell line, 6 hrs incubation; for DC50: read-out: IKZF1 HiBit DC50; for Dmax: HEK-293T, read-out: IKZF1 HiBit Dmax (%). How it is done:
In Vitro IKZF1 HiBit Assay
The HiBiT protein tagging system was applied to modified Cells: modified HEK293T Flp-in-HiBiT-IKZF1 stable cell line (polyclone) via a CRISPR/Cas9-mediated insertion of the HiBiT peptide tag (Promega™) to the N-terminus of the […] gene locus (Neon™ transfection system).
25 nL of diluted compound is transferred to assay plates (Corning3571) using ECHO550, the final DMSO concentration @ 0.1%. The cells are seeded in 3000/25 μL/well to compound plates. The plates are incubated for 6 hrs in TC incubator. The amount of Nano-Glo® HiBiT lytic reagent needed to perform the desired experiments is calculated. The Nano-Glo® HiBiT lytic reagent is brought to room temperature. The LgBiT protein is diluted to 1:100 and the Nano-Glo® HiBiT lytic substrate is brought to 1:50 into an appropriate volume of room temperature Nano-Glo® HiBiT lytic buffer. 15 μL of the detection reagent (or without LgBiT) is dispensed to corresponding well according to the layout. The plate is shaked for 10 mins at room temperature. After briefly centrifuge, the plateis read on Envision. At the indicated timepoints, the Nano-Glo® HiBiT lytic detection system (Promega™) was utilized for detecting bioluminescence of the HiBiT tag in treated cells: abundance of the tag is proportionate to the level of luminescence. Following normalization to DMSO, dose-response curves were plotted (GraphPad Prism) to determine the concentration points at which 50% of HiBiT-Ikaros degradation was achieved by each compound. The extent of degradation (range of luminescence) from the highest to lowest concentration points was calculated to determine the Dmax.
as §1

Structures are written as SMILES. Where only a bound is given, the exact number is not on record here.

Sequence of IKZF1 (Q13422 whole entry): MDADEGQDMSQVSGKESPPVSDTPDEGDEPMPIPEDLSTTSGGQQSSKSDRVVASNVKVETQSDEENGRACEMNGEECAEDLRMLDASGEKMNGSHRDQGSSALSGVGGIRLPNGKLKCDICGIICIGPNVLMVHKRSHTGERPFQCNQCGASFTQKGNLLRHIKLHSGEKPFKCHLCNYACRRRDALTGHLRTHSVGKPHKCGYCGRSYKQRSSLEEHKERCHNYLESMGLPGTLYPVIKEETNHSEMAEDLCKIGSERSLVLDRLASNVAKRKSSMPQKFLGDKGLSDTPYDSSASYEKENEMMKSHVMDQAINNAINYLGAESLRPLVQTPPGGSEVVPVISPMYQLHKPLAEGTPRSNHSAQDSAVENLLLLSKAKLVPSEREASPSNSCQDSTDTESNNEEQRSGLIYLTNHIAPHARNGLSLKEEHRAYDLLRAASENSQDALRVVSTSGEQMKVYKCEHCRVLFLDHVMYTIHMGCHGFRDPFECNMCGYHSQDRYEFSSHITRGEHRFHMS
Sequence of IKZF1 (Q96SW2 whole entry): as the sequence (Q96SW2 whole entry) above
Sequence of IKZF1 (Q16531 2-1140 partner): as the sequence (Q16531 2-1140 partner) above

In the case of `O=C1CCC(N2Cc3cc(-c4cc(CN5CCCC5)c5nccc(OCCO)c5n4)ccc3C2=O)C(=O)N1` (stereo not drawn) [Example 285, 3-(5-(8-(2-hydroxyethoxy)-4-(pyrrolidin-1-ylmethyl)-1,5-naphthyridin-2-yl)-1-oxoisoindolin-2-yl) piperidine-2,6-dione], the DC50 is 1 to 10 nM at IKZF2 and greater than 10000 nM on IKZF1. For the same molecule, the values for the Dmax at IKZF2 and on IKZF1 were 20 to 40% and less than 20%, respectively.
For `O=C1CCC(N2Cc3cc(-c4cc(CN5CCCC5)c5nccc(NC6CC6)c5n4)ccc3C2=O)C(=O)N1` (stereo not drawn) [Example 244, 3-(5-(8-(cyclopropylamino)-4-(pyrrolidin-1-ylmethyl)-1,5-naphthyridin-2-yl)-1-oxoisoindolin-2-yl) piperidine-2,6-dione], in that order: 10 to 100 nM, greater than 10000 nM, 40 to 60% and less than 20%.
With `O=C1CCC(N2Cc3cc(-c4cc(CN5CCCC5)c5nccc(C6CCC6)c5n4)ccc3C2=O)C(=O)N1` (stereo not drawn) [Example 247, 3-(5-(8-cyclobutyl-4-(pyrrolidin-1-ylmethyl)-1,5-naphthyridin-2-yl)-1-oxoisoindolin-2-yl) piperidine-2,6-dione], on IKZF2, the DC50 lay within 10 to 100 nM and the Dmax was in the range of 40 to 60%. For the same molecule, at IKZF1, the DC50 was greater than 10000 nM and the Dmax was less than 20%.
`Cc1cc(-c2ccc3c(c2)CN(C2CCC(=O)NC2=O)C3=O)nc2oc(CN3CCCC3)nc12` (stereo not drawn) [Example 198, 3-(5-(7-methyl-2-(pyrrolidin-1-ylmethyl)oxazolo [5,4-b]pyridin-5-yl)-1-oxoisoindolin-2-yl) piperidine-2,6-dione]: the DC50 on IKZF2 is 10 to 100 nM; at IKZF1, greater than 10000 nM. For the same molecule, the Dmax at IKZF2 was 40 to 60%; at IKZF1, less than 20%.
With `Cn1cnc(-n2ccc3c(CN4CCCC4)cc(-c4ccc5c(c4)CN([C@H]4CCC(=O)NC4=O)C5=O)nc32)c1` [Example 263, (S)-3-(5-(1-(1-methyl-1H-imidazol-4-yl)-4-(pyrrolidin-1-ylmethyl)-1H-pyrrolo[2,3-b]pyridin-6-yl)-1-oxoisoindolin-2-yl) piperidine-2,6-dione], the DC50 was 1 to 10 nM on IKZF2 and greater than 10000 nM at IKZF1. For the same molecule, the Dmax is 40 to 60% at IKZF2 and less than 20% on IKZF1.
For `O=C1CCC(N2Cc3cc(-c4cc(CN5CCCC5C(F)(F)F)c5ccn(C6COC6)c5n4)ccc3C2=O)C(=O)N1` (stereo not drawn) [Example 253, 3-(5-(1-(oxetan-3-yl)-4-((2-(trifluoromethyl)pyrrolidin-1-yl)methyl)-1H-pyrrolo[2,3-b]pyridin-6-yl)-1-oxoisoindolin-2-yl) piperidine-2,6-dione], on IKZF2, the DC50 fell in the range of 10 to 100 nM and the Dmax was 40 to 60%. Also, on IKZF1, the DC50 was greater than 10000 nM and the Dmax is less than 20%.
`CC(C)CC1CN(Cc2cc(-c3ccc4c(c3)CN(C3CCC(=O)NC3=O)C4=O)nc3[nH]ccc23)CC1O` (stereo not drawn) [Example 138, 3-(5-(4-((3-hydroxy-4-isobutylpyrrolidin-1-yl)methyl)-1H-pyrrolo[2,3-b]pyridin-6-yl)-1-oxoisoindolin-2-yl) piperidine-2,6-dione]: on IKZF2, the DC50 fell in the range of 1 to 10 nM and the Dmax was greater than 80%. Further, on IKZF1, the DC50 was 100 to 1000 nM and the Dmax lay within 20 to 40%.
The matching figures for `O=C1CCC(N2Cc3cc(-c4cc(CN5CCCC5)c5cccc(C6CCC6)c5n4)ccc3C2=O)C(=O)N1` (stereo not drawn) [Example 241, 3-(5-(8-cyclobutyl-4-(pyrrolidin-1-ylmethyl)quinolin-2-yl)-1-oxoisoindolin-2-yl) piperidine-2,6-dione]: 10 to 100 nM, 40 to 60%, greater than 10000 nM and less than 20%.
The matching figures for `CC(Oc1ccnc2c(CN3CCCC3)cc(-c3ccc4c(c3)CN(C3CCC(=O)NC3=O)C4=O)nc12)C(F)(F)F` (stereo not drawn) [Example 279, 3-(1-oxo-5-(4-(pyrrolidin-1-ylmethyl)-8-((1,1,1-trifluoropropan-2-yl)oxy)-1,5-naphthyridin-2-yl)isoindolin-2-yl) piperidine-2,6-dione]: 1 to 10 nM, 60 to 80%, greater than 10000 nM and less than 20%.
The matching figures for `CS(=O)(=O)CCn1ccc2c(CN3CCCC3)cc(-c3ccc4c(c3)CN(C3CCC(=O)NC3=O)C4=O)nc21` (stereo not drawn) [Example 136, 3-(5-(1-(2-(methylsulfonyl)ethyl)-4-(pyrrolidin-1-ylmethyl)-1H-pyrrolo[2,3-b]pyridin-6-yl)-1-oxoisoindolin-2-yl) piperidine-2,6-dione]: 10 to 100 nM, 20 to 40%, greater than 10000 nM and less than 20%.
`Cn1nc(N)c2nc(-c3ccc4c(c3)CN(C3CCC(=O)NC3=O)C4=O)cc(CN3CCCC3)c21` (stereo not drawn) [Example 183, 3-(5-(3-amino-1-methyl-7-(pyrrolidin-1-ylmethyl)-1H-pyrazolo[4,3-b]pyridin-5-yl)-1-oxoisoindolin-2-yl) piperidine-2,6-dione]: on IKZF2, the DC50 lay within 1 to 10 nM and the Dmax was greater than 80%. For the same molecule, on IKZF1, the DC50 was 10 to 100 nM and the Dmax was 40 to 60%.
Take `CC(C)Nc1n[nH]c2c(CN3CCCC3)cc(-c3ccc4c(c3)CN(C3(C)CCC(=O)NC3=O)C4=O)nc12` (stereo not drawn) [Example 294, 3-(5-(3-(isopropylamino)-7-(pyrrolidin-1-ylmethyl)-1H-pyrazolo[4,3-b]pyridin-5-yl)-1-oxoisoindolin-2-yl)-3-methylpiperidine-2,6-dione]: on IKZF2, the DC50 was 1000 to 10000 nM and the Dmax was 20 to 40%. At IKZF1, the DC50 is greater than 10000 nM and the Dmax is less than 20%.
As for `CNC(=O)Cn1ccc2c(CN3CCCC3)cc(-c3ccc4c(c3)CN(C3CCC(=O)NC3=O)C4=O)nc21` (stereo not drawn) [Example 150, 2-(6-(2-(2,6-dioxopiperidin-3-yl)-1-oxoisoindolin-5-yl)-4-(pyrrolidin-1-ylmethyl)-1H-pyrrolo[2,3-b]pyridin-1-yl)-N-methylacetamide], the DC50 at IKZF2 is 10 to 100 nM; on IKZF1 it was greater than 10000 nM. For the same molecule, the Dmax on IKZF2 was 60 to 80%; at IKZF1 it was less than 20%.
The matching figures for `CC(C)Nc1n[nH]c2c(CN3CCC(F)C3)cc(-c3ccc4c(c3F)CN(C3CCC(=O)NC3=O)C4=O)nc12` (stereo not drawn) [Example 286]: 1 to 10 nM, greater than 10000 nM, 60 to 80% and less than 20%.
For `CC(C)Nc1n[nH]c2c(CN3CCCC3)cc(-c3ccc4c(c3)CN(C35CC(C3)C(=O)NC5=O)C4=O)nc12` [Example 298, 1-(5-(3-(isopropylamino)-7-(pyrrolidin-1-ylmethyl)-1H-pyrazolo[4,3-b]pyridin-5-yl)-1-oxoisoindolin-2-yl)-3-azabicyclo[3.1.1]heptane-2,4-dione], in that order: less than 1 nM, greater than 10000 nM, 20 to 40% and less than 20%.
